# Read-outs that look alike come from different tables or passages of the source.
# Tests used:
# human T cells = assay: Concanavalin A-induced model for activation of human T cells (IFN-γ); assay type: cell-based; conditions: isoform selective concentrations
# [1] = Oral PK in the rat LPS studies (free plasma concentration); assay type: in vivo; conditions: p.o. 0.2 mg/kg
# Excerpt: (§1) This study also includes assessment of the exposure to the compounds in plasma and lung tissues.
# [2] = system: LPS induced neutrophil influx in BALF; assay: LPS-induced neutrophilia, oral administration; assay type: in vivo; conditions: rat, p.o., 4 hours post-LPS challenge
# Excerpt: as §1
# [3] = system: CXCL12 induced p-AKT in M1 polarized macrophage; assay: CXCL12-induced p-AKT induction assay, M1 polarized macrophages; assay type: cell-based, mouse
# Excerpt: (§2) Long bones from young C57B6 mice were harvested and bone marrow was extruded by gentle lavage of the bone marrow cavities with a 28 guage needle. Red blood cells were removed using red blood cell lysis buffer (Sigma). Bone marrow cells were differentiated to macrophages using MCSF for 6 days (RPMI and 20% FCS) with one media change (with removal of all non-adherent cells) at day 3. Macrophages were polarized into M0 (MCSF), M1 (MCSF, IFNγ, and LPS for 1 day), or M2 (MCSF, IL4 for 2 days).
# (§3) CXCL12-induced p-AKT induction assay: Polarized macrophages were lifted with Acutase, and plated at 0.5M cells per well (0.5 ml) in a deep well (2 ml) non adherant plate in polarization media for 1 hour. […] CXCL12 was added, and the cells were mixed on a plate shaker for 2 minutes. 1 ml of 37 degree FACS Lyse/fix buffer (BD bioscience) was added and the plate was mixed for 1 minute. The plates were spun and decanted and frozen at −80° C. Phospho AKT staining with anti Phospho AKT 473 PERCP labeled (Cell Signaling Technologies) was performed and measured by flow cytometry. Total cell MFI was used to calculate the effect of tested compound on CXCL12 induction of phospho AKT.
# [4] = system: CXCL12 induced p-AKT in M2 polarized macrophage; assay: CXCL12-induced p-AKT induction assay, M2 polarized macrophages; assay type: cell-based, mouse
# Excerpt: as §2, §3
# [5] = molecular target: PI3K-γ in RAW264.7 macrophages (Mus musculus (Mouse), UniProt Q9JHG7); assay: Raw264.7 p110 γ assay (phospho-AKT, C5a stimulated); assay type: cell-based
# Chain of PI3K-γ in RAW264.7 macrophages (Q9JHG7 whole entry): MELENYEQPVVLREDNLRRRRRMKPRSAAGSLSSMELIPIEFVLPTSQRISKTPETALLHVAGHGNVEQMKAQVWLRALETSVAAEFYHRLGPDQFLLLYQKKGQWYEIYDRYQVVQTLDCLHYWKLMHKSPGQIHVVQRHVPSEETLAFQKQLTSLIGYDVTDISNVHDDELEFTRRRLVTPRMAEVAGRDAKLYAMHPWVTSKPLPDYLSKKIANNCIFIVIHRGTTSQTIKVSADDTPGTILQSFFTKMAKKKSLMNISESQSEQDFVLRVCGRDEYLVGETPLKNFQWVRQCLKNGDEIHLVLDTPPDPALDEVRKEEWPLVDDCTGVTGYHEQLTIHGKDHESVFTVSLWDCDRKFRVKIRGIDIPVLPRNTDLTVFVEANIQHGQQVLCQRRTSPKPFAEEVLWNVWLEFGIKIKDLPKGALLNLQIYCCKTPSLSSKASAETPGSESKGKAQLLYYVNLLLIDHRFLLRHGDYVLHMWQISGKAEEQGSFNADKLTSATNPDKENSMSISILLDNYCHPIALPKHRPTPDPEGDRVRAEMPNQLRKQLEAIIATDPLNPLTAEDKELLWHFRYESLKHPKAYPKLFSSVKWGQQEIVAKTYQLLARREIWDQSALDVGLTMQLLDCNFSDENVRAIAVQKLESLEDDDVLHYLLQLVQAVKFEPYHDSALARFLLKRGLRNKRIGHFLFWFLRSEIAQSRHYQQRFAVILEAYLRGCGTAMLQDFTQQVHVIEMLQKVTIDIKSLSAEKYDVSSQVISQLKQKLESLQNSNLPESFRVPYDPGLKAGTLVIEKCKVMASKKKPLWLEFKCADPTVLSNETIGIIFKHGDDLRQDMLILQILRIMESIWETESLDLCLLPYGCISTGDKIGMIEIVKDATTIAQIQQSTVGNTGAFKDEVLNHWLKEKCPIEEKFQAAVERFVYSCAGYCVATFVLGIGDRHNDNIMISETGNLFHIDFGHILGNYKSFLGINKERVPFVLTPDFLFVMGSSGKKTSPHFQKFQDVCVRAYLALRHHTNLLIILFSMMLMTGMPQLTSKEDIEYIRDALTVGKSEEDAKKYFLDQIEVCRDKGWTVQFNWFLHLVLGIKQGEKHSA
# Excerpt: Briefly, serum-starved RAW264.7 cells are stimulated with a known GPCR agonist C5a. […] Cells can be treated with test compounds prior to, simultaneously with, or subsequent to the stimulation by C5a. RAW 264.7 cells respond to the complement component fragment C5a through activation of the C5a receptor, and the C5a receptor activates macrophages and induces cell migration.
# PI3K γ = PI3K γ (Homo sapiens (Human), UniProt P48736); assay: PI3-Kinase Promega ADP-Glo Max assay; assay type: biochemical
# Chain of PI3K γ (P48736 whole entry): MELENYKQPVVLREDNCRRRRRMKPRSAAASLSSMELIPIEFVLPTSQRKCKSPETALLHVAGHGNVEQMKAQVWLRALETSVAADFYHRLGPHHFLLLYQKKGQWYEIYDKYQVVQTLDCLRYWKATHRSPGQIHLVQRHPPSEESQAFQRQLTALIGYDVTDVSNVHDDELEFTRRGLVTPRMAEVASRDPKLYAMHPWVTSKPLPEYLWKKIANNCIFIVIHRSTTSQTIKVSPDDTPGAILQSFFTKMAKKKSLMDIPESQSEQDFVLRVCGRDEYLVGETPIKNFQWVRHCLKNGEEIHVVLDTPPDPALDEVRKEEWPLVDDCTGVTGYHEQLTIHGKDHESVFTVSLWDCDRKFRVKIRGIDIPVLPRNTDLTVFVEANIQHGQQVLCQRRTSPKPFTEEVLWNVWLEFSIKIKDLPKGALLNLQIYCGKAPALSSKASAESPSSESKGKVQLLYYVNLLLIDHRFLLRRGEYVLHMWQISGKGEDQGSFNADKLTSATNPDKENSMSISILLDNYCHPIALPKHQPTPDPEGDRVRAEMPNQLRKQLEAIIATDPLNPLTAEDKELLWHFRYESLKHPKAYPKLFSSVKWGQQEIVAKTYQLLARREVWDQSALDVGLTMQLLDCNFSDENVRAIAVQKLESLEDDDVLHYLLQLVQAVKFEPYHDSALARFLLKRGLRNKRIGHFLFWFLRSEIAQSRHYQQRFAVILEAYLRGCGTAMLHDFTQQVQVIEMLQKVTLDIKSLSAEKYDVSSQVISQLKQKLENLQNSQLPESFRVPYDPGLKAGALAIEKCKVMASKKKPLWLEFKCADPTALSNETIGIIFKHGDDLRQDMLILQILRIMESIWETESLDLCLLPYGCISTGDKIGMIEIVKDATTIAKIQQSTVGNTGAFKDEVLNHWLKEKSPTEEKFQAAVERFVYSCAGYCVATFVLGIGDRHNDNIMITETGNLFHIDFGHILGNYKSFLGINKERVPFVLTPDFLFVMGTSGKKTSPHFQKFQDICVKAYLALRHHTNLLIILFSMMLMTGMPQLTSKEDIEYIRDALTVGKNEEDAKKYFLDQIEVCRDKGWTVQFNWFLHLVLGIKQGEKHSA
# Protocol: (§4) Promega ADP-Glo Max assay kit (Cat. No. V7002) was utilized to determine IC50 values for α, β, δ and γ isoforms of human Class I PI3 kinases (Millipore). […] Reactions were incubated at room temperature for 2 hours followed by addition of 25 uL of stop solution. After a 40-minute incubation at room temperature, 50 uL of Promega detection mix was added followed by incubation for 1 hour at room temperature. Plates were then read on Envision plate reader in luminescence mode. Data was converted to % inhibition using the following equation below:
# (§5) [formula] where S is the sample luminescence, Pos is a positive control without added PI3K, Neg is the negative control without added compound. Data was then plotted as % inhibition vs compound concentration.
# PI3K δ = PI3K δ (Homo sapiens (Human), UniProt O00329); assay: PI3-Kinase Promega ADP-Glo Max assay; assay type: biochemical
# Protocol: as §4, §5
# PI3K-δ in RAJI cells = PI3K-δ in RAJI cells (Homo sapiens (Human), UniProt O00329); assay: RAJI p110 δ assay (phospho-AKT, anti-human IgM stimulated); assay type: cell-based
# Protocol: Reduction of phospho-AKT is indicative of compounds that may inhibit B-cell proliferation and function in certain diseases.
# Certain compounds provided herein were tested in RAJI cell model using procedures as described above.
# PI3K β = PI3K β (Homo sapiens (Human), UniProt P42338); assay: PI3-Kinase Promega ADP-Glo Max assay; assay type: biochemical
# Chain of PI3K β (P42338 whole entry): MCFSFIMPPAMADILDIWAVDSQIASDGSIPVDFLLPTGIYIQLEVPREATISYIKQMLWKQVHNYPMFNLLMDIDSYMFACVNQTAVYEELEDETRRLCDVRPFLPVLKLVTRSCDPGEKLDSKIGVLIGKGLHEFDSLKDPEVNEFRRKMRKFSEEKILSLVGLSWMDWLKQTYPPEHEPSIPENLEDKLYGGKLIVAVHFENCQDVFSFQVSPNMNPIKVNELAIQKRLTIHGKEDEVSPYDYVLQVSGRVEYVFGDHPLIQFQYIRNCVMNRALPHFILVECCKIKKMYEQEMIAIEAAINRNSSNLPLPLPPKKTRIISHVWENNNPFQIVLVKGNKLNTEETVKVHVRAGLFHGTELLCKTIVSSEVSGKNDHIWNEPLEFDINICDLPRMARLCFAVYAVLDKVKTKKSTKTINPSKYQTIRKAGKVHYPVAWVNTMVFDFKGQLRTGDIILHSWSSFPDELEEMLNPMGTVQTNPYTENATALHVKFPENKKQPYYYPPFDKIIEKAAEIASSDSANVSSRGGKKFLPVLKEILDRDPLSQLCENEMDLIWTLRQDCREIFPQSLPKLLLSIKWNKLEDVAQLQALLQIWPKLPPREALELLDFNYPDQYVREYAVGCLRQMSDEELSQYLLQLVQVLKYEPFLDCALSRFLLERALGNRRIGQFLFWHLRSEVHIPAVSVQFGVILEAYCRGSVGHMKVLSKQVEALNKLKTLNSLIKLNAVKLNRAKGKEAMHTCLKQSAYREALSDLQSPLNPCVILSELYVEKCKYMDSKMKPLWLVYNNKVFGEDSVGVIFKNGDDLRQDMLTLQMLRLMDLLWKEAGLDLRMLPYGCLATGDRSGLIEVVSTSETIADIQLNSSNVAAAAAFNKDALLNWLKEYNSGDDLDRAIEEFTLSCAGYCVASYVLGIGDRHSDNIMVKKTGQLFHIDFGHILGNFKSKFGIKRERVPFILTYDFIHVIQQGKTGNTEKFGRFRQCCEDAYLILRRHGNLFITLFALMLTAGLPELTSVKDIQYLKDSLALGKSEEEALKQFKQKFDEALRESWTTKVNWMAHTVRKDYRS
# Chain of PI3K β (P27986 whole entry partner): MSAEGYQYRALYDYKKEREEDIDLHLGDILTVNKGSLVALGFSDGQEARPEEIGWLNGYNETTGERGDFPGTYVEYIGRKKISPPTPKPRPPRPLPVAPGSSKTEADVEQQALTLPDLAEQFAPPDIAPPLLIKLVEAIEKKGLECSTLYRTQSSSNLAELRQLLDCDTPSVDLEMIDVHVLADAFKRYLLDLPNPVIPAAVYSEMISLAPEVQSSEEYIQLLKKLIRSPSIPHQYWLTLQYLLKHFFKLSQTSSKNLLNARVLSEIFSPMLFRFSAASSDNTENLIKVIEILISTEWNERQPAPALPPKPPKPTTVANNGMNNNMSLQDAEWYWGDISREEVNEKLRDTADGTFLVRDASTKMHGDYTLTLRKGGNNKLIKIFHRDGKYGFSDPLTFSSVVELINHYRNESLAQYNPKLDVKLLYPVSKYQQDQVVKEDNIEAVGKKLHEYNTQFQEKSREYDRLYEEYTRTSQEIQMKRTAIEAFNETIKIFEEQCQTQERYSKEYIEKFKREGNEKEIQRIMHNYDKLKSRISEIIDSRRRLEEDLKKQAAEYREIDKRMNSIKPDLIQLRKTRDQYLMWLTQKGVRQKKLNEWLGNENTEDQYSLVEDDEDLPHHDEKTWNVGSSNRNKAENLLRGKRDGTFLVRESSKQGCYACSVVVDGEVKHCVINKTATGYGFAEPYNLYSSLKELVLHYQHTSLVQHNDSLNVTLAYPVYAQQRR
# Protocol: as §4, §5
# PI3K α = PI3K α (Homo sapiens (Human), UniProt P42336); assay: PI3-Kinase Promega ADP-Glo Max assay; assay type: biochemical
# Chain of PI3K α (P42336 whole entry): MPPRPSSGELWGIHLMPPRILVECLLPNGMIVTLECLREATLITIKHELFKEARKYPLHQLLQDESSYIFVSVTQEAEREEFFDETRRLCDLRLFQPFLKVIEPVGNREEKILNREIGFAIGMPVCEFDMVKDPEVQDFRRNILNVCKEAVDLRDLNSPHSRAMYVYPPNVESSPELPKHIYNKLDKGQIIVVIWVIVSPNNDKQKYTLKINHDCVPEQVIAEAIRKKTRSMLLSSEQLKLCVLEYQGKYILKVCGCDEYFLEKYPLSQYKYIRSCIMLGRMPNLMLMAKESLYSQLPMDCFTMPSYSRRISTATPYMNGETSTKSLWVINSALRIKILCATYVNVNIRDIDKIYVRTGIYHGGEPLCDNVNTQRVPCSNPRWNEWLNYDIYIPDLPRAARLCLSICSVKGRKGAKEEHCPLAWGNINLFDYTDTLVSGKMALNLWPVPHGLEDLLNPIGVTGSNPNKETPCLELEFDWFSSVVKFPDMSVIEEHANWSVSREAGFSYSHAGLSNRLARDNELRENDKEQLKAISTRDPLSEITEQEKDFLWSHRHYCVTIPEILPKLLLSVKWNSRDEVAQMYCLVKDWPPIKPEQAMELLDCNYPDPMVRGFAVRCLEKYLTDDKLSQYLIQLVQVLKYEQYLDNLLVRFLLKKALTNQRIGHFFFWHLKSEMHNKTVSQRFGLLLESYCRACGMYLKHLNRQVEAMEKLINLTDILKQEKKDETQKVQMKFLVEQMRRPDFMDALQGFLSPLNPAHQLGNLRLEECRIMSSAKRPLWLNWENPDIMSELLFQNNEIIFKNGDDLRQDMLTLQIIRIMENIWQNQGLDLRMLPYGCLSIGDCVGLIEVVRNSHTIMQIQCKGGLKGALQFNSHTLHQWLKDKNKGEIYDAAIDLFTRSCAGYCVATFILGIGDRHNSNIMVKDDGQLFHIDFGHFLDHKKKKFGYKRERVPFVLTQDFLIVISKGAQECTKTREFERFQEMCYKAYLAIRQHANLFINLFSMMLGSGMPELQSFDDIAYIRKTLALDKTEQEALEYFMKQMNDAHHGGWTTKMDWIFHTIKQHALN
# Chain of PI3K α (P27986 whole entry partner): as the sequence (P27986 whole entry partner) above
# Protocol: as §4, §5
# [6] = Pharmacokinetics of Compound 88, oral; assay type: in vivo, mouse; conditions: female C57 mice
# Protocol: A similar study was carried out using Compound 88. […] Below is a table that details the results for Compound 88: […]
# LLC tumor = LLC tumor brei model with or without cyclophosphamide; assay type: in vivo, mouse; conditions: BB 15 mg/kg QD PO; cyclophosphamide 50 mg/kg EOD IP, FIG. 48
# Protocol: In this experiment, treatment began when tumors reached approx. 150 mm^3—around day 12. Caliper and xenogen images were monitored. Treatment groups n=13-15/group. […] Samples for FACs analysis were collected on day 23 post implant. Using FACS, cells were assayed for the level of CD11b and Gr-1.
structure (smiles),measurement,setting,value
CC(C)n1c([C@H](C)Nc2ncnc(N)c2C#N)cc2cccc(-c3ccc(=O)n(C)c3)c2c1=O [Compound AA],effect on IFN-γ,human T cells,highly selective inhibitor
same,Free Plasma Conc (nM) […],[1]; approximately 4 hours post LPS challenge,BLQ
same,Free Plasma Conc (nM) 1.5 h,[1]; at time of LPS challenge,BLQ
same,Neutrophil in bronchoalveolar lavage fluid (BALF),[2],reduced neutrophil
same,Inhibition of CXCL12-induced p-AKT,[3],did not significantly inhibit
same,Inhibition of CXCL12-induced p-AKT,[4],did not significantly inhibit
C[C@H](NC(=O)c1c(N)nn2cccnc12)c1cc2cccc(C#CC3CC3)c2c(=O)n1-c1ccccc1 [Compound 9],RAJI δ/Raw264.7 γ IC50 (selectivity),[5],Y (key: V = 0.1 to 1; W = > 1 to <10; X = 10 to <50; Y = 50 to <850)
same,PI3K δ/PI3K γ IC50 (selectivity),PI3K γ,X (key: V = 0.1 to 1; W = > 1 to <10; X = 10 to <50; Y = 50 to <850)
C/C=C/c1cccc2cc([C@H](C)NC(=O)c3c(N)nn4cccnc34)n(-c3ccccc3)c(=O)c12 [Compound 70],RAJI δ/Raw264.7 γ IC50 (selectivity),[5],X (key: V = 0.1 to 1; W = > 1 to <10; X = 10 to <50; Y = 50 to <850)
same,PI3K δ/PI3K γ IC50 (selectivity),PI3K γ,X (key: V = 0.1 to 1; W = > 1 to <10; X = 10 to <50; Y = 50 to <850)
C[C@H](NC(=O)c1c(N)nn2cccnc12)c1nc2cccc(C#CC(C)(C)C)c2c(=O)n1-c1ccccc1 [Compound 3],RAJI δ/Raw264.7 γ IC50 (selectivity),[5],X (key: V = 0.1 to 1; W = > 1 to <10; X = 10 to <50; Y = 50 to <850)
same,IC50,[5]; phospho-AKT,50 to 100 nM
same,IC50,PI3K δ,5 to 10 µM
same,IC50,PI3K-δ in RAJI cells,1 to 10 µM
same,IC50,PI3K β,5 to 10 µM
same,IC50,PI3K γ,1000 to 5000 nM
same,PI3K δ/PI3K γ IC50 (selectivity),PI3K γ; ratio of biochemical IC50s,W (W = > 1 to <10)
same,IC50,PI3K α,5 to 10 µM
Cc1cnc(C(=O)N[C@@H](C)c2cc3cccc(C#Cc4cnn(C)c4)c3c(=O)n2-c2ccccc2)c(N)n1 [Compound 68],RAJI δ/Raw264.7 γ IC50 (selectivity),[5]; ratio of cellular IC50s,W (W = > 1 to <10)
same,PI3K δ/PI3K γ IC50 (selectivity),PI3K γ; ratio of biochemical IC50s,W (W = > 1 to <10)
"Cc1c(C#Cc2cccc3nc([C@H](C)NC(=O)c4c(N)nn5cccnc45)n(-c4ccccc4)c(=O)c23)cnn1C [Compound 88, (S)-2-amino-N-(1-(5-((1,5-dimethyl-1H-pyrazol-4-yl)ethynyl)-4-oxo-3-phenyl-3,4-dihydroquinazolin-2-yl)ethyl)pyrazolo[1,5-a]pyrimidine-3-carboxamide]",Stability in serum,[6],good stability in serum
"O=P1(N(CCCl)CCCl)NCCCO1 (stereo not shown) [cyclophosphamide, reference compound]","Tumor growth, LLC tumor brei model",LLC tumor,reduced tumor growth by about the same amount

# Source: patent publication US11541059B2, “Heterocyclic compounds and uses thereof” (Infinity Pharmaceuticals, Inc., priority 2014, dated 2023)
